Measurements: patent US11713318B2, “Short conjugated oligoelectrolytes and uses thereof” (The Regents Of The University Of California, priority 2018, dated 2023)
Like-named read-outs stand apart in the source and are kept apart here.

Legend:
[1] = tested on: S. flexneri; assay: MIC panel of pathogens, Table 4; format: cell-based; conditions: Shigella flexneri
Method: (§1) The minimum inhibitory concentration (MIC) was determined according to the Clinical and Laboratory Standards Institute (CLSI) guidelines by broth dilution. […] MIC values were derived after 20 h incubation, and were the result of at least 6 independent determinations.

[2] = tested on: E. coli; assay: MIC panel of pathogens, Table 4; format: cell-based; conditions: Escherichia coli
Method: as §1

[3] = tested on: S. Typhimurium; assay: MIC panel of pathogens, Table 4; format: cell-based; conditions: Salmonella enterica
[4] = tested on: S. pneumoniae D39; assay: MIC panel of pathogens, Table 4; format: cell-based; conditions: Streptococcus pneumoniae
[5] = tested on: S. aureus (MSSA); assay: MIC panel of pathogens, Table 4; format: cell-based; conditions: Staphylococcus aureus
[6] = tested on: K. aerogenes (ATCC 13048); assay: MIC broth microdilution method, Table 3; conditions: Klebsiella aerogenes, ATCC13048
[7] = tested on: E. coli ATCC25922 (WT); assay: MIC against resistant strains, Tables 5a-5d; format: cell-based; conditions: Escherichia coli, n = 3
Procedure, shortened: (§2)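 Read-out is the MIC. Resistant isolates, including MRSA, VRE and MDR Gram-negatives, were exposed to test compounds under the general growth-inhibition method.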

[8] = tested on: E. cloacae 1744299 (ESBL); assay: MIC against resistant strains, Tables 5a-5d; format: cell-based; conditions: Enterobacter cloacae, n = 3
Procedure, shortened: as §2

[9] = tested on: K. pneumoniae ATCC BAA-2473 (MDR); assay: MIC against resistant strains, Tables 5a-5d; format: cell-based; conditions: Klebsiella pneumoniae, ATCCBAA2473, n = 3
Procedure, shortened: as §2

[10] = tested on: P. aeruginosa CDC0248 (MDR); assay: MIC against resistant strains, Tables 5a-5d; format: cell-based; conditions: Pseudomonas aeruginosa, n = 3
Procedure, shortened: as §2

[11] = tested on: P. aeruginosa; assay: MIC panel of pathogens, Table 4; format: cell-based; conditions: Pseudomonas aeruginosa
[12] = tested on: S. pneumoniae Daw 1; assay: MIC panel of pathogens, Table 4; format: cell-based; conditions: Streptococcus pneumoniae, DAW1
[13] = tested on: K pneumoniae (clinical isolate); assay: MIC panel of pathogens, Table 4; format: cell-based; conditions: clinical isolate from Cottage Hospital
[14] = tested on: N. gonorrhoeae; assay: MIC panel of pathogens, Table 4; format: cell-based; conditions: Neisseria gonorrhoeae
[15] = tested on: A. baumannii; assay: MIC panel of pathogens, Table 4; format: cell-based; conditions: Acinetobacter baumannii
[16] = tested on: Y. pseudotuberculosis; assay: microbe, parasite or virus in culture; format: cell-based; conditions: Yersinia pseudotuberculosis
[17] = Cytotoxicity tested by Eurofins Pharma Discovery Services; format: cell-based; conditions: Primary Human Hepatocytes, Eurofins; at the concentration given as IC50 bound; read-out: cell viability at the highest or lowest test concentration
[18] = as above; format: cell-based; conditions: human, Hep G2 cells; Hep G2, Eurofins; at the concentration given as IC50 bound; read-out: cell viability at the highest or lowest test concentration

Structure (SMILES): CCCCCC[N+](C)(C)CCCCCCOc1cc(/C=C/c2cc(OCCCCCC[N+](C)(C)CCCCCC)cc(OCCCCCC[N+](C)(C)CCCCCC)c2)cc(OCCCCCC[N+](C)(C)CCCCCC)c1 [Formula E]
- MIC [1]: 2 µg/mL
- MIC [2]: 2 µg/mL
- MIC [3]: 2 µg/mL
- MIC [4]: 4 µg/mL
- MIC [5]: 1 µg/mL
- MIC [6]: 8 µg/mL
- MIC [7]: 1 µg/mL
- MIC [8]: 2 µg/mL
- MIC [9]: 2 µg/mL
- MIC [10]: 8 µg/mL
- MIC [11]: 8 µg/mL
- MIC [12]: 8 µg/mL
- MIC [13]: 4 µg/mL
- MIC [14]: 0.5 µg/mL
- MIC [15]: 4 µg/mL
- MIC [16]: 1 µg/mL

Structure (SMILES): C[N+](C)(C)CCCCOc1cc(/C=C/c2ccc(/C=C/c3cc(OCCCC[N+](C)(C)C)cc(OCCCC[N+](C)(C)C)c3)cc2)cc(OCCCC[N+](C)(C)C)c1.[I-].[I-].[I-].[I-] [Formula F]
- MIC [6]: 32 µg/mL
- MIC [7]: 8 µg/mL
- MIC [8]: 8 µg/mL
- MIC [9]: 32 µg/mL
- MIC [10]: > 64 µg/mL
- viability [17]: 79%
- viability [18]: 70%
